From patent US20080064758A1, “METHOD OF TREATMENT OR PROPHYLAXIS OF DEPRESSION” (MediciNova, Inc., priority 2006, published 2008)
Where a name gives a salt, the structure may show the parent alone.

Columns and labels:
[1] = system: apomorphine-induced hypothermia; assay: Antagonism of apomorphine-induced hypothermia; type: in vivo; settings: male CD1 mice; i.p.; apomorphine 16 mg/kg s.c.; rectal temperature 30 min after apomorphine
Description: Antagonism of Apomorphine-Induced Hypothermia (A. J. Puech et al., Psychopharmacology (1981) 75(1):84-91)
Male CD1 mice (Charles River) weighing 22-25 g are used in the test. The mice are housed individually in transparent plastic cages. The compounds of a general formula (I) as well as the reference compounds are suspended in 1% aqueous carboxymethylcellulose and administered intraperitoneally (10 ml/kg; 6 mice per dose). Control animals received the vehicle only.
Rectal temperature is measured using a probe carrying a thermoelectric couple (connected to a galvanometer) inserted to a constant depth.
The compounds to be tested as well as the vehicle are administered 30 minutes after basal rectal temperature is measured, and 30 minutes later apomorphine (16 mg/kg) is administered subcutaneously. Rectal temperature is measured again 30 minutes after the administration of apomorphine.
The results are expressed as average rectal temperature of each group, by evaluating the significant differences in temperature between treated and control mice by Student's t test, and are used for calculating the M.A.D., i.e., the minimal active dose.

[2] = system: reserpine-induced hypothermia; assay: Antagonism of the reserpine-induced hypothermia; type: in vivo, mice; settings: given 4 hours after reserpine 2.5 mg/kg i.p.; rectal temperature 90 min after compound
Description: Antagonism of the Reserpine-Induced Hypothermia
The compounds of a general formula (I) as well as the reference compounds are administered 4 hours after reserpine (2.5 mg/kg i.p.). Rectal temperature is measured 90 minutes after the administration of the compounds to be tested.

immobility of mice = assay: Tail suspension; type: in vivo; settings: 30 mg/kg PO, reference
Description: Compounds of a general formula (I) (starting at an initial dose of 30 mg/kg PO, 1 hr pretreatment) were administered to mice (n=5). A reduction of immobility by 50% or more relative to a vehicle-treated control group indicates possible antidepressant activity. Fluoxetine hydrochloride served as a standard reference compound. […] There was a 35% mobility reduction at 100 mg/kg PO, 54% mobility reduction at 10 mg/kg PO and 46% mobility reduction at 1 mg/kg PO.

| Compound | M.A.D. (minimal active dose), antagonism of apomorphine-induced hypothermia [1] [mg/kg i.p.] | M.A.D. (minimal active dose), antagonism of reserpine-induced hypothermia [2] | reduction of immobility (immobility of mice) [%] |
| --- | --- | --- | --- |
| CC(C)(C)NCC(O)c1ccc(O)c(CO)c1 (stereo not drawn) [salbutamol] | 1.0 | 3.0 mg/kg i.p. |  |
| CCOC(=O)COc1cccc([C@@H]2CCC[C@@H](NC[C@H](O)c3cccc(Cl)c3)C2)c1 [Compound A, 3-[(1R,3R)-3-[(2R)-2-(3-chlorophenyl)-2-hydroxyethylamino]cyclohexyl]-phenoxy acetic acid ethyl ester, maleate salt] |  | closer to clenbuterol (0.03 mg/kg i.p.) than salbutamol (3.0 mg/kg i.p.) |  |
| CNCCC(Oc1ccc(C(F)(F)F)cc1)c1ccccc1 (stereo not drawn) [fluoxetine, Fluoxetine hydrochloride] |  |  | 87 |
| CC(C)(C)NCC(O)c1cc(Cl)c(N)c(Cl)c1 (stereo not drawn) [clenbuterol] | 0.03 | 0.03 mg/kg i.p. |  |
